Reference: article PMC7566913, “Dual Gene Delivery Reagents From Antiproliferative Alkylphospholipids for Combined Antitumor Therapy” (Frontiers in Chemistry, 2020)

How the values were obtained:
[1] = CMC/CAC by pyrene fluorescent probe technique in ultrapure water; assay type: physicochemical; conditions: pyrene fluorescence
[2] = Hydrolytic stability of the APL prodrugs monitored by 31P-NMR; assay type: physicochemical
Excerpt: Aqueous formulation of the APL prodrugs produces nanosized lipid aggregates that most likely enter cells through the endocytosis pathway. To produce the expected intrinsic antineoplastic effect, APL-derived phosphotriesters need to be processed into the bioactive parent APLs. The hydrolysis of the prodrugs may be under the control of a chemical stimulus, e.g., a pH decrease as observed during the maturation of endosomes, or of degradation enzymes that massively enter the endosome compartment when continuing to lysosomes. To get some information on the transformation of pro-APLs into APLs, we monitored the hydrolysis of these compounds over time, at pH 7.4 and 4.5, conditions that mimick the extracellular milieu and the environment of the late endosome, respectively. This monitoring was realized using ^31P-NMR spectroscopy, according to a previously reported method (Pierrat et al., [2013b]). Whatever the compound investigated, only one single ^31P resonance did appear during the course of the experiments, corresponding to that of the parent APL. This confirmed that hydrolysis of the pro-APLs selectively occurred at the acetal center. […] As a general trend, hydrolysis of the pro-APLs was […] under neutral conditions (i.e., pH 7.4) than under acidic ones (i.e., pH 4.5). […] Besides, substitution of one hydrogen atom with a methyl group on the acetal bridge accelerated the rate of hydrolysis of the prodrugs. […] Indeed, in biological media, the enzyme-mediated hydrolysis of such compounds can proceed far quicker than “simple” chemical hydrolysis under pH control (Pierrat et al., [2012]). […]

H292 cells = experiment: Antiproliferative effect of pUNO1-hTRAIL vs pCMV-Gluc lipoplexes, MTT, H292; assay type: cell-based, human; conditions: N/P 3, 1 eq. DOPE
Protocol: Cells were treated with lipoplexes prepared from pro-APLs ME12, PE12, and EE12, with increasing dose of pDNA (0.1–0.4 μg per well). The gold standard gene delivery reagent Lipofectamine® 2000 was assayed in parallel for comparison purpose. In order to distinguish the intrinsic cytotoxic effect of the in situ generated APLs from that resulting from TRAIL expression, pCMV-Gluc was assayed in parallel to pUNO1-hTRAIL. Using pCMV-Gluc, the observed cytotoxicity was assumed to result only from the APL antiproliferative activity, whereas results obtained with pUNO1-hTRAIL are a combination of TRAIL activity and APL antiproliferative effect. […] Though the temptation is to take it as an indicator that functional TRAIL was produced, the difference found was not always statistically significant. The activity profile of the three pro-APLs varied according to the cell line. […]
Figure 8 Antiproliferative effect of lipoplexes prepared from ME12 (A), PE12 (B), EE12 (C), and the two DNA plasmids pCMV-Gluc (light bars) and pUNO1-hTRAIL (dark bars), on the three cell lines. […] Lipofectamine®-based lipoplexes (0.1 μg plasmid/well) were prepared according to the optimized experimental conditions determined following the supplier's instructions. Cell viability was measured by the MTT assay. Basal mitochondrial activity measured in untreated cells is set at 100%. […]

A549 cells = experiment: Gene transfer efficiency, pCMV-Gluc luciferase reporter gene assay; assay type: cell-based, human; conditions: A549, N/P 3, 1 eq. DOPE
Excerpt: The efficacy of the pro-APLs to mediate intracellular delivery of a plasmid DNA was examined in A549 human lung epithelial carcinoma cells using the pCMV-Gluc reporter gene encoding the luciferase of Gaussia princeps. This luciferase is secreted by cells and transgene expression can be conveniently assessed by standard bioluminescence measurements on aliquots of the cell culture supernatant, without need for prior cell lysis. Lipoplexes were formulated in glucose 5% at N/P ratios of 1, 3, and 5, with increasing amounts of DOPE as a helper lipid. They were deposited onto cells in the presence of 10% serum and luciferase activity was measured after 24 h (Figure 3). […] The influence of the nature of the pendant hydrophobic arm was also examined.
To investigate the effect of serum on the gene delivery properties of the APL prodrugs, cells were treated with lipoplexes in the presence of an increasing concentration of serum (Figure 5). Two DNA doses were considered.
Figure 5 Transfection efficiency of pro-APLs ME12 (A), PE12 (B), and EE12 (C) as a function of serum content. Pro-APL/DNA complexes were prepared at N/P 3, with 1 molar eq. of DOPE. A549 cells (6,000 cells/well) were seeded into 96-well plates in 100 μL of culture medium containing 10% serum. Twenty-four hours later, cell supernatant was replaced with culture medium complemented with increasing amounts of serum (from 10 to 75%) just before adding the lipoplexes (0.2 and 0.4 μg of DNA per well; light and deep purple bars, resp.). Control (light blue bar) refers to basal bioluminescence measured in untreated cells. […] Statistical significance vs. control. ***p < 0.001, **p < 0.01, *p < 0.05.

## CCCCCCCCCCCCCCCCCCOP(=O)(OCOC(=O)CCCCCCCCCCC)OC1CC[N+](C)(C)CC1.[Cl-] (stereo not drawn) [PE12, 4-((((Dodecanoyloxy)methoxy)(octadecyloxy)phosphoryl)oxy)-1,1-dimethylpiperidin-1-ium chloride]
[1]
  CMC (APLs) / CAC (pro-APLs): 2.9 ± 1.0 µM
[2]; pH 4.5
  H120 (hydrolysis rate after a 120-h incubation period): 2%
[2]; pH 7.4
  H120 (hydrolysis rate after a 120-h incubation period): 16%
H292 cells
  Cell death specifically induced by TRAIL: ca. 45%
A549 cells; DNA dose 0.2 μg/well
  Serum content up to which significant transgene expression was mediated: up to 50 % serum
A549 cells; DNA dose 0.4 μg/well
  Serum content up to which transfection activity extended: up to 75 % serum
